In US20240116923A1, “USE OF INDOLE, 6- AND 7-AZAINDOLE DERIVATIVES AS INHIBITORS OF FERROPTOSIS REGULATED CELL DEATH” (Seabelife, priority 2021, published 2024):

Key:
Abca4−/−Rdh8−/− mice = test: In vivo model of Stargardt's disease and AMD, blue light damage, ERG and OCT
Procedure: As described in Parmar et al., Invest Ophthalmol Vis Sci., 2016, 57(7), mice lacking ATP-binding cassette transporter 4 (ABCA4) and retinol dehydrogenase 8 (RDH8) mimic features of human Stargardt's disease and age-related macular degeneration. Intense light exposure can accelerate retinal degeneration in Abca4^−/−Rdh8^−/− mice.
Blue light damage (BLD) experiments are performed on 7-week-old Abca4−/−Rdh8−/− mice. The animals were adapted to low light levels (4000 lux, 30 minutes). Six days after BLD, an optical coherence tomography (OCT) examination of each eye is performed, which provides a “snapshot” of the state of the retinal cell layers in living mice. OCT is based on the use of a low coherence interferometer. This imaging technique allows in vivo cross-sectional images of tissues to be taken with a resolution of a few microns. It is performed under light gas anaesthesia (5% isoflurane at induction then 2% during maintenance) and is non-invasive. The pupils of the mice are dilated with 0.5% Midriaticum. A representative image of each eye was extracted and included in separate report documents (4 OCT attachments). The following day, measurements of the electrical activity of the retina were made by measuring scotopic and photopic electroretinograms (ERG). The scotopic ERG is performed after a night in the dark in order to measure the electrical response of the rods which represent 97% of the photoreceptors in the mouse. At higher intensities, the cones also respond. This is followed by a photopic ERG which records the response of the cones only. Three measurements corresponding to the activity of 1) rod and cone photoreceptors, 2) inner retinal bipolar cells and 3) cones only, are obtained. The eyes are then harvested and prepared for subsequent histological analysis. In the IP experiments, one eye is dissected and the retina and RPE are frozen separately. These tissues can be used for further measurements.
Compound 1 in powder form is taken up in DMSO in order to obtain a solution at 20 mM. These solutions are stored at −20° C. and are thawed extemporaneously to prepare a solution diluted 89 times in PBS. These solutions give a final concentration in the eye of around 50 μM for compound 1, and 0.25% DMSO. A vehicle is prepared from pure DMSO to achieve a final 0.25% in the vitreous. Mice are lightly anaesthetised with isoflurane during the IVT procedure. A volume of 1.5 μL is injected into the vitreous of the left eye.
In order to measure the thickness of the retina and the photoreceptor layer, image processing was performed using Image J software. The thickness of the whole retina is measured between the outer segment layer and the ganglion cell layer. The thickness of the photoreceptor layer is measured between the outer plexiform layer and the outer segment layer. On average 6 measurements are made along the length of an OCT image representing an upper or lower half-retina. In order to prepare plates of sections of the eyes from the SBL2 IVT experiment, one eye corresponding to each condition was cut on the cryostat, i.e. one NINI eye and both eyes of an SBL2-injected mouse (I and NI).
The solutions are prepared extemporaneously from water-soluble lyophilisates of compound 7 (SBL1)-cyclodextrin (final CD concentration, 15%) and the corresponding placebos. The solutions are prepared by injecting a predefined volume of 0.9% NaCl into the vial. The vial is then vortexed and the solution is filtered into a new sterile tube. Two groups of 3 mice are used for these tests. The group received either SBL1 (20 mg/kg) (n=3) or placebo-SBL1 (n=3). The volume to be injected is calculated according to the weight of the mice and corresponds to 10 ml/kg. Mice were injected 3 and 1 h before and 1 and 3 h after the start of the BLD.

male Wistar rats = test: In vivo model of ischaemic acute renal failure induced by transient bilateral renal artery occlusion; conditions: rat, 15 mg/kg IP
Procedure: The experiment was carried out using male Wistar rats (Janvier Labs, C.S. 4105, Saint-Berthevin F-53941, France), weighing 200-260 g on the day of surgery. Before surgery, the animals were housed in groups 2-4 in polysulfone cages (floor area=1500 cm^2) under standard conditions: room temperature (22±2° C.), hygrometry (55±10%), light/dark cycle (12 h/12 h), air replacement (15-20 volumes/hour), water and food (SAFE, ref. A04) ad libitum. The animals were allowed to acclimate to environmental conditions for at least 5 days prior to experimentation. Rats were anesthetised with sodium pentobarbital (60 mg/kg i.p.), and placed on a servocontrolled heating table to maintain rectal temperature close to 37° C. After endotracheal intubation animals were mechanically ventilated. The abdominal cavity was exposed by medial laparotomy, both left and right renal arteries will be identified, carefully dissected from the renal vein and clamped for 40 min. During this clamping period the abdominal cavity was kept closed. The clamps were released, perfusion to the kidneys re-established and the abdominal cavity sutured. Animals where reperfusion were incomplete, as judged visually, were excluded. Post-surgical analgesia was ensured by subcutaneous administration of buprenorphine (10 50 μg/kg, sc) twice daily for 2 days (including the day of surgery). After surgery, the animals were individually housed. The animals were observed and weighted daily and the sutures were examined and disinfected with antiseptic solution (povidone-iodine) if needed.
A follow-up of body weight and mortality were performed for all animals, the day of surgery and during the 7 days following ischaemia. In order to determine creatinine and blood urea nitrogen (BUN) concentrations in plasma, 6 blood samples of at least 0.3 mL were taken from each animal: before surgery and then on days 1, 2, 3 (before vehicle/SBL01 administrations), 4 and 7 after surgery. The following parameters were measured: Creatinine concentration in plasma, Blood urea nitrogen concentration, and Body weight. […]

SMILES | electrical response of retinal cells (scotopic and photopic ERG) compared to placebo (Abca4−/−Rdh8−/− mice; intraperitoneal 20 mg/kg, 3 and 1 h before and 1 and 3 h after start of BLD, cyclodextrin lyophilisate) | scotopic B wave at higher intensities (inner retina response) (Abca4−/−Rdh8−/− mice; intraperitoneal 20 mg/kg, FIG. 35) | scotopic ERG response to the 30 cd·s/m^2 flash intensity (mixed rod-cone response) (Abca4−/−Rdh8−/− mice; intraperitoneal 20 mg/kg, FIGS. 34 & 35) | whole retinal thickness from OCT, injected vs non-injected mice (Abca4−/−Rdh8−/− mice; intraperitoneal treatment, FIG. 36) | creatinine plasma level (male Wistar rats; Day 2 after surgery, vs vehicle, FIG. 40) | urea plasma level (male Wistar rats; Day 2 after surgery, vs vehicle, FIG. 41) | renal function during artery occlusion (protection against renal ischaemic failure) (male Wistar rats; compared to the vehicle) | electrical response of retinal cells (scotopic and photopic ERG) (Abca4−/−Rdh8−/− mice; intravitreal injection, 50 μM in the eye, after blue light damage) | thickness of the retinas from OCT, injected versus non-injected eyes (Abca4−/−Rdh8−/− mice; intravitreal treatment, FIG. 33) | photopic ERG, injected vs non-injected eyes (Abca4−/−Rdh8−/− mice; intravitreal, 50 μM, 30 cd·s/m2, FIG. 30) | scotopic ERG B wave, injected vs uninjected eyes (Abca4−/−Rdh8−/− mice; intravitreal, 50 μM, p=0.048 vs VEH NI at 30 cd·s/m2, FIG. 32) | scotopic ERG A wave, injected eye vs vehicle-injected eye (Abca4−/−Rdh8−/− mice; intravitreal, 50 μM, significant (P=0.0206) vs VEH NI at 10 cd·s/m2, FIG. 31)
Oc1ccc(-c2cc3cccnc3[nH]2)cc1 [Compound 7, 4-(1H-pyrrolo[2,3-b]pyridin-2-yl)phenol] | slightly protect the electrical response of retinal cells | protective trend | protective trend | a difference between the whole retinas of injected and non-injected mice | significant decrease | significant decrease | protective effect | – | – | – | – | –
Oc1ccc(-c2cc3ccccc3[nH]2)cc1 [Compound 1, 4-(1H-indol-2-yl)phenol] | – | – | – | – | – | – | – | appears to preserve the electrical response of retinal cells | significant difference | partially preserved | appears preserved | a clear difference is observed
